Measurements reported in ChEMBL document CHEMBL1909569 (Bioorg Med Chem Lett, 2011).
≈ marks a conversion by molar mass, not a printed value.

Tests used:
[1] = system: Mycobacterium tuberculosis; experiment: Antimicrobial activity against replicating Mycobacterium tuberculosis after 8 days by micro plate alamar blue assay; type: functional; conditions: 192 h
[2] = system: Mycobacterium tuberculosis; experiment: Antimicrobial activity against non-replicating Mycobacterium tuberculosis after 11 days by luminescence based low oxygen recovery assay; type: functional; conditions: 264 h
[3] = molecular target: T1, DNA-directed RNA polymerase subunit beta (Mycobacterium tuberculosis) (UniProt P9WGY9); experiment: (§1) Inhibition of wild type Mycobacterium tuberculosis RNA polymerase after 10 mins using ribo green staining by rolling circle transcription assay; parameters: unit not given here
T1 sequence (whole entry): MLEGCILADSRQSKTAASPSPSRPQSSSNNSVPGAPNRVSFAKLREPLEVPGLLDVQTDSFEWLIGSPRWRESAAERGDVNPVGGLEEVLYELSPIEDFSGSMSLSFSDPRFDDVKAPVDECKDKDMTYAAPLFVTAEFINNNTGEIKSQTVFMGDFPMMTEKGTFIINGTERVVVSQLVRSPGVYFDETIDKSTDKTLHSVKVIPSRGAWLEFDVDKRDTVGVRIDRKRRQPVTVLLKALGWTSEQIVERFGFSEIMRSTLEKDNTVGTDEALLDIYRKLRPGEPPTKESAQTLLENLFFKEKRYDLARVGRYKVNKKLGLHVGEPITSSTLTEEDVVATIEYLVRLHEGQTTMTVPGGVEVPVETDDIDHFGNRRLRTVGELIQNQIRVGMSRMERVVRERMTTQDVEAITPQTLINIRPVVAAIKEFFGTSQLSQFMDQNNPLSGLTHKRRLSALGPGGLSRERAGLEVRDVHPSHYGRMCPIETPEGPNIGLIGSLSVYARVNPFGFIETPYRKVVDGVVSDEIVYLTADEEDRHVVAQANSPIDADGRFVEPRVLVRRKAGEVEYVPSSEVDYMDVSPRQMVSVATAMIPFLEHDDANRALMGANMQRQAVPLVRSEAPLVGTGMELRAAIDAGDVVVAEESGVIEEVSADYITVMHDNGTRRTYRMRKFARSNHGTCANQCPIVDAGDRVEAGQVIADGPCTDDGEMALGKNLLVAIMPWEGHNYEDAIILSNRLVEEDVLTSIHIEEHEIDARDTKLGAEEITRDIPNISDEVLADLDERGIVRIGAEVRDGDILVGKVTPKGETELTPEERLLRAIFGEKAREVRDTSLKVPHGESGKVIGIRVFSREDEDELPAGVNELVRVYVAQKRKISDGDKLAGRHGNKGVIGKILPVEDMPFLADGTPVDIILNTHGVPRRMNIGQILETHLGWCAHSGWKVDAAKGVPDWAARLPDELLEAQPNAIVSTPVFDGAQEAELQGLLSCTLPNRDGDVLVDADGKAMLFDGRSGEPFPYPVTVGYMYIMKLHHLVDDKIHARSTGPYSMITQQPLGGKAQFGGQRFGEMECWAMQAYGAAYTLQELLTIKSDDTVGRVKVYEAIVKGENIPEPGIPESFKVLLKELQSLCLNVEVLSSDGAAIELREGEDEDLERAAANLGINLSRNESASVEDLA

[4] = molecular target: T2, DNA-directed RNA polymerase subunit beta (Mycobacterium tuberculosis, UniProt P9WGY9); experiment: as §1
T2 sequence (P9WGY9 whole entry): T1 sequence (whole entry)

[5] = system: Escherichia coli; experiment: Antimicrobial activity against wild type Escherichia coli TG2 after 16 to 20 hrs; type: functional
[6] = system: Escherichia coli; experiment: Antimicrobial activity against wild type Escherichia coli DH5[alpha] after 16 to 20 hrs; type: functional
[7] = system: Escherichia coli; experiment: Antimicrobial activity against Escherichia coli EC2880 mutant after 16 to 20 hrs; type: functional
[8] = molecular target: T1, DNA-directed RNA polymerase subunit beta (Mycobacterium tuberculosis); experiment: Ratio of compound IC50 to Rifamycin S IC50 for wild type Mycobacterium tuberculosis RNA polymerase
[9] = molecular target: T3, Nuclear receptor subfamily 1 group I member 2 (Homo sapiens, UniProt O75469); experiment: (§2) Activation of human PXR in DPX2 cells after 24 hrs by microplate reader relative to control; type: ADME, cell-based
T3 sequence (O75469 whole entry): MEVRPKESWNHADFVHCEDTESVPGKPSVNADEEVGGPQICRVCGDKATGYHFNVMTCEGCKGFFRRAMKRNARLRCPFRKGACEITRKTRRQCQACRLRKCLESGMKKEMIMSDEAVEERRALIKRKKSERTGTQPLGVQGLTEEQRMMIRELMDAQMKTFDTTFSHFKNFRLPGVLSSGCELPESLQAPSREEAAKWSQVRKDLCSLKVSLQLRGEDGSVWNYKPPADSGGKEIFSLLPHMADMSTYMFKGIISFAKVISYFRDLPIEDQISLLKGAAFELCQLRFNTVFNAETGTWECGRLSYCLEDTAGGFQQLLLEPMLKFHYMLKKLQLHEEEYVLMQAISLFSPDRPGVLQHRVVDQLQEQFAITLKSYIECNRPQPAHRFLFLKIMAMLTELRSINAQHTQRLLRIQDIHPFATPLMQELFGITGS

[10] = molecular target: T4, PXR (nuclear receptor subfamily 1 group I member 2) (Homo sapiens, UniProt O75469); experiment: as §2; type: ADME, cell-based; conditions: human, DPX2 cells; read-out: FC
T4 sequence (O75469 whole entry): T3 sequence (O75469 whole entry)

[11] = molecular target: T3, Nuclear receptor subfamily 1 group I member 2; experiment: Activation of human PXR in DPX2 cells up to 100 uM after 24 hrs by microplate reader relative to control; type: ADME, cell-based

SMILES	MIC90 [1]	MIC90 [2]	logIC50 [3]	IC50 [4]	MIC90 [5]	MIC90 [6]	MIC90 [7]	Ratio IC50 [8]	EC50 [9]	fold induction at 24 h [10]	EC50 [11]
CO[C@H]1/C=C/O[C@@]2(C)Oc3c(C)c(OS(=O)(=O)c4ccc(C)cc4)c4c(c3C2=O)C(=O)C=C(NC(=O)/C(C)=C\C=C\[C@H](C)[C@H](O)[C@@H](C)[C@@H](O)[C@@H](C)[C@H](OC(C)=O)[C@@H]1C)C4=O	0.2 µM (≈ 0.17 µg/mL)	3 µM (≈ 2.55 µg/mL)	-1.68	0.021 µM	> 100 µM	> 100 µM	3.12 µM (≈ 2.66 µg/mL)	2	–	–	–
CNc1c(C)c2c3c4c1C(=O)C(=C(/C=N/N1CCN(C)CC1)C4=O)NC(=O)/C(C)=C\C=C\[C@H](C)[C@H](O)[C@@H](C)[C@@H](O)[C@@H](C)[C@H](OC(C)=O)[C@H](C)[C@@H](OC)/C=C/O[C@@](C)(O2)C3=O	3.64 µM (≈ 3.04 µg/mL)	> 19.2 µM	–	–	–	–	–	–	2.1 µM	6.9	–
CO[C@H]1/C=C/O[C@@]2(C)Oc3c(c4c5c(nn(C)c5c3C)C(=C(/C=N/N3CCN(C)CC3)C4=O)NC(=O)/C(C)=C\C=C\[C@H](C)[C@H](O)[C@@H](C)[C@@H](O)[C@@H](C)[C@H](OC(C)=O)[C@@H]1C)C2=O	> 4.8 µM	> 19.3 µM	–	–	–	–	–	–	–	–	Not Active
CO[C@H]1/C=C/O[C@@]2(C)Oc3c(C)c(SC)c4c(c3C2=O)C(=O)C=C(NC(=O)/C(C)=C\C=C\[C@H](C)[C@H](O)[C@@H](C)[C@@H](O)[C@@H](C)[C@H](OC(C)=O)[C@@H]1C)C4=O	2 µM (≈ 1.45 µg/mL)	1.3 µM (≈ 0.944 µg/mL)	-1.82	0.015 µM	> 100 µM	> 100 µM	> 12.5 µM	–	–	–	–
CNc1c(C)c2c3c4c(O)c(/C=N/N5CCN(C)CC5)c(c(O)c14)NC(=O)/C(C)=C\C=C\[C@H](C)[C@H](O)[C@@H](C)[C@@H](O)[C@@H](C)[C@H](OC(C)=O)[C@H](C)[C@@H](OC)/C=C/O[C@@](C)(O2)C3=O	4 µM (≈ 3.34 µg/mL)	> 19.1 µM	–	–	–	–	–	–	4.1 µM	8.9	–
CO[C@H]1/C=C/O[C@@]2(C)Oc3c(c4c5c(nn(CCO)c5c3C)C(=C(/C=N/N3CCN(C)CC3)C4=O)NC(=O)/C(C)=C\C=C\[C@H](C)[C@H](O)[C@@H](C)[C@@H](O)[C@@H](C)[C@H](OC(C)=O)[C@@H]1C)C2=O	3.9 µM (≈ 3.36 µg/mL)	> 18.6 µM	-0.856	0.139 µM	> 100 µM	> 100 µM	> 12.5 µM	–	–	–	–
